Data: paper doi:10.1101/2020.04.06.027102v2 (biorxiv, 2020)

Legend:
Experiment in all cases: UV-visible dark absorbance spectrum of purified reconstituted rhodopsin
Type in all cases: binding
[1] = target: T1, Eat-BRh2 (BRh2, Eat-B2) (Eumaeus atala, UniProt A0A7T3U8M8); conditions: covalent, 40 uM 11-cis-retinal
T1 sequence (A0A7T3U8M8 1-380): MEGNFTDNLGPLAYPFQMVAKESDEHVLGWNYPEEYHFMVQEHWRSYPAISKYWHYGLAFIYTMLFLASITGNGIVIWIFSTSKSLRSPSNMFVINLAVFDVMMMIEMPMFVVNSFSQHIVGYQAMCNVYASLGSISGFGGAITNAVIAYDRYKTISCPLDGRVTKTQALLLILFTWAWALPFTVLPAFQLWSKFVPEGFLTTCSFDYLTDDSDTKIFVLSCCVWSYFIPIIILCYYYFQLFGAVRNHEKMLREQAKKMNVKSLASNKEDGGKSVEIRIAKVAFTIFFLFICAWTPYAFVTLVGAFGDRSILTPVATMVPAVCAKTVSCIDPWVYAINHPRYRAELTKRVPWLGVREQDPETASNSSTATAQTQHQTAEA

[2] = target: T2, Eat-BRh1 (BRh1, Eat-B1) (Eumaeus atala, UniProt A0A7T3U8I9); conditions: covalent, 40 uM 11-cis-retinal
T2 sequence (A0A7T3U8I9 1-380): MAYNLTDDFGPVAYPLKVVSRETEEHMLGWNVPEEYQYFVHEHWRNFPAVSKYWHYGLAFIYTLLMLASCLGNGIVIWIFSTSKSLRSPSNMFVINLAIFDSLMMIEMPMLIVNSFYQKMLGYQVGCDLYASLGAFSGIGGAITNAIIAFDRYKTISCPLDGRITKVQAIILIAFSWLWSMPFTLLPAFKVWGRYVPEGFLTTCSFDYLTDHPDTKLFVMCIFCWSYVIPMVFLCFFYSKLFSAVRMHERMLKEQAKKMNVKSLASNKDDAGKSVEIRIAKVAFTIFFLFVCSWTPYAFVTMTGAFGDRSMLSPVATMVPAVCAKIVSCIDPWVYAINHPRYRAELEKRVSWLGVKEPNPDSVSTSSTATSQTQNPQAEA

[3] = target: T3, Eumaeus atala LWRh (LW opsin) (Eumaeus atala, UniProt A0A7T3U8W4); conditions: covalent, 40 uM 11-cis-retinal, figure legend prints 567 nm
T3 sequence (A0A7T3U8W4 1-381): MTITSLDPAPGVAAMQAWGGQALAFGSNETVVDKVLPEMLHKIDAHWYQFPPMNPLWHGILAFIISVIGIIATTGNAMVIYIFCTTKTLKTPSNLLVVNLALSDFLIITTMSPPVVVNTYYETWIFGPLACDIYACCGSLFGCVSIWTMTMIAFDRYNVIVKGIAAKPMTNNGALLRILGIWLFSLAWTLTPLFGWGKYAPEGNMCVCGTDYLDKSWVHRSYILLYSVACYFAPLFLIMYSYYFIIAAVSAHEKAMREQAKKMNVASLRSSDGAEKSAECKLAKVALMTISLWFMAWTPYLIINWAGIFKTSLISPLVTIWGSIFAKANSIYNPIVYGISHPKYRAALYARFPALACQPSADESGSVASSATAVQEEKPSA

[4] = target: T4, Eumaeus atala UVRh (Eumaeus atala, UniProt A0A7T3U8H7); conditions: covalent, 40 uM 11-cis-retinal
T4 sequence (A0A7T3U8H7 1-406): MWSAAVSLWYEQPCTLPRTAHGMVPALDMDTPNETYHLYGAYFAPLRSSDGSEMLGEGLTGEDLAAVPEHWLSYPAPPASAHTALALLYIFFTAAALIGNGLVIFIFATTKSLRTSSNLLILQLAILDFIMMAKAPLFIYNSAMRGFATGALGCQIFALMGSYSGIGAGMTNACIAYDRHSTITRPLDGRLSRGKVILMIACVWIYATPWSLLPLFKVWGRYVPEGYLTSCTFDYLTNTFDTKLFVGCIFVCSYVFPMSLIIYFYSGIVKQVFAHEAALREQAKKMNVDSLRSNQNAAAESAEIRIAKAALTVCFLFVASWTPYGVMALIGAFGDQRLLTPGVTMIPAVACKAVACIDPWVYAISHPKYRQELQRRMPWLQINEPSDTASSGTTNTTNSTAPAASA

- λmax [1]: 500 ± 2 nm
- λmax [2]: 435 ± 2 nm
- λmax [3]: 569 ± 2 nm
- λmax [4]: 352 ± 3.5 nm
Compound: CC1=C(/C=C/C(C)=C/C=C\C(C)=C\C=O)C(C)(C)CCC1 [11-cis-retinal]
